Assay results as given in ChEMBL document CHEMBL3997811.

Experiments:
A549 = assay: Cytotoxicity against human A549 cells after 48 hrs by neutral red uptake assay; format: cell-based; details: a549, 48 h
MDCK = assay: Cytotoxicity against MDCK cells after 48 hrs by neutral red uptake assay; format: cell-based, Canis lupus familiaris; details: dog

`Clc1cc(-c2cc(CNC34CC5CC(CC(C5)C3)C4)no2)cs1` was tested, and the CC50 (A549) was 52.6 µM and the CC50 (MDCK) was 35.6 µM.
Compound `COc1sccc1-c1cc(CNC23CC4CC(CC(C4)C2)C3)no1` has a CC50 (A549) of 35.5 µM and a CC50 (MDCK) of 30.6 µM.
In the case of `Oc1ccccc1-c1cc(CNC23CC4CC(CC(C4)C2)C3)no1`, the CC50 (A549) is reported as 78.2 µM and the CC50 (MDCK) is reported as 73.7 µM.
Work on `Clc1cc(-c2cc(CNC34CC5CC(CC(C5)C3)C4)no2)c(Cl)s1` yielded a CC50 (A549) of 61.4 µM and a CC50 (MDCK) of 39.3 µM.
`OC12CC3CC(C1)CC(NCc1cc(-c4ccccc4Cl)on1)(C3)C2` gave a CC50 (A549) of 143 µM and a CC50 (MDCK) of 64.1 µM.
`CSc1ccccc1-c1cc(CNC23CC4CC(CC(O)(C4)C2)C3)no1` was tested, and the CC50 (A549) was 102 µM and the CC50 (MDCK) was 59.3 µM.
`OC12CC3CC(C1)CC(NCc1cc(-c4cc(Cl)sc4Cl)on1)(C3)C2` showed a CC50 (MDCK) of 87.6 µM.
